Laboratory results published in US10329304B2, “Compounds and methods for inhibition of hedgehog signaling and phosphodiesterase” (Vanderbilt University, priority 2014, dated 2019).

How the values were obtained:
zebrafish embryos = assay: Zebrafish embryo phenotypic assay (ZF); type: in vivo; details: wild-type embryonic zebrafish, dosed 5 hpf
Method: All zebrafish experiments were approved by Vanderbilt University Institutional Animal Care and Use Committee. Wild-type zebrafish of AB strain were maintained using standard protocols. Chemical screen for small molecules was performed as previously described. Briefly, pairs of zebrafish were mated, and fertilized eggs were arrayed in 96-well microtiter plates (5 embryos/well) containing 250 μl E3 water. At ˜4-hpf, small molecule library from Vanderbilt High Throughput Screening Facility was added to each well to the final concentration of 5 μM. Embryos were incubated at 28.5° C. until 24 and 48-hpf, when they were examined for gross morphologic changes indicative of disruption in embryonic patterning. A total of ˜30,000 compounds were screened.
ZF refers to wild-type embryonic zebrafish phenotypic assay involving dosing n=˜10 embryos in E3 egg water with compound from either a stock of 1 mM or 10 mM in DMSO at 5 hours post-fertilization and observing at 24, 48, and 72 hours post-fertilization.

[1] = test system: Hedgehog signaling (TM3-Gli-Luc); assay: TM3-Gli-Luc luciferase reporter assay stimulated with 20 nM SAG; type: cell-based; details: Table 9A; read-out: TM3 G8 Luciferase EC 50
Method: TM3-Gli-Luc cells were maintained on sterile 0.1% gelatin (from porcine skin, Type A, prepared in MilliQ water, autoclaved, then sterile-filtered) in 1:1 Dulbecco's Modified Eagle Medium (DMEM)/F12 supplemented with 5% horse serum, 2.5% fetal bovine serum (FBS), and 15 mM HEPES, hereafter referred to as TM3 Culture Medium. For small molecule evaluation, TM3-Gli-Luc cells were assayed on 0.1% gelatin in DMEM/F12 supplemented with 2.5% FBS and 15 mM HEPES, hereafter referred to as TM3Luc Medium. Sufu^−/− cells were maintained in DMEM supplemented with 4.5 g/L D-glucose, L-glutamine, 25 mM HEPES, and 10% FBS, hereafter referred to as D10 FBS. For small molecule evaluation, Sufu^−/− cells were assayed in DMEM supplemented with 4.5 g/L D-glucose, L-glutamine, 25 mM HEPES, and 0.5% FBS, hereafter referred to as D0.5 FBS. All cells were cultured at 37° C. with a 5% CO2 atmosphere.
On the day of cell plating, 96-well plates were coated with 50 μL/well of sterile 0.1% gelatin for 5 minutes then aspirated and replaced with 50 μL/well of TM3 Culture Medium. TM3-Gli-Luc cells were seeded at a density of 5,000 cells/well in TM3 Culture Medium and incubated for 24 hours. A master mix of 20 nM SAG in TM3Luc Medium was prepared, and small molecule solutions were prepared by adding the desired amount of compound from 10 mM DMSO stock to TM3Luc Medium containing 20 nM SAG. Negative control was prepared by adding an equi-volume amount of DMSO as compared to small molecule treated conditions to TM3Luc Medium not containing SAG. Cell plating medium was aspirated and replaced with 100 μL/well of prepared small molecule-containing media, and plates were incubated for 48 hours before proceeding to luciferase activity and cell viability reading.
TM3Luc Medium from compound treated plates was aspirated and replaced with 82 μL/well of Glo Lysis Buffer (Promega, Madison, Wis., USA), and plates were shaken at 300 rpm and room temperature for 12 minutes. Lysate was split between two white 96-well plates, 45 μL/well and 25 μL/well for luciferase reading and cell viability respectively. For luciferase activity monitoring, 45 μL/well of Steady Glo (Promega, Madison, Wis., USA) was added to 45 μL/well of cell lysate, incubated at room temperature for 5 minutes, then luminescence was measured on a Turner Biosystems Modulus Microplate Reader (Sunnyvale, Calif., USA) with an integration time of 0.5 seconds. For cell viability measurement, 25 μL/well of Cell Titer Glo (Promega, Madison, Wis., USA) (prepared by 1:10 dilution with Glo Lysis Buffer) was added to 25 μL/well of cell lysate, incubated at room temperature for 5 minutes, then luminescence was measured as above.
Luciferase activity data (Steady Glo) was divided by corresponding cell viability data (Cell Titer Glo) to arrive at a live cell number-normalized luciferase activity reading. The average of negative control data (DMSO treated) was subtracted from all wells, and percent activity was calculated by dividing all wells by the positive control (SAG treated) average. […] At least two independent assays tested on separate days were averaged to provide EC50±standard error of the mean.

Gli1 mRNA = assay: Hh % Inh.: SAG-induced Gli1 expression in C3H10T½ cells (qPCR); type: cell-based; details: Mus musculus, C3H 10T1/2, SAG-induced (100 nM), 24 hours; for inhibition at 1 µM: 1 pM [sic], read-out: C3H10T1/2 qPCR, Gh1 mRNA % Inh., 1 pM; for inhibition at 10 µM: 10 pM [sic], read-out: C3H10T1/2 qPCR, Gh1 mRNA % Inh., 10 pM
Method: Compounds are dosed from 10 mM DMSO stock solutions, and mRNA is isolated after 24 hours of compound treatment. mRNA is reverse transcribed to produce cDNA which is quantified by quantitative polymerase chain reaction (qPCR) in triplicate and levels are normalized to GAPDH levels. Data is presented as percent inhibition compared to positive control (SAG).

| EC50 [1] | SMILES | ZF Phenotype EC100 (zebrafish embryos) | inhibition at 1 µM (Gli1 mRNA) | inhibition at 10 µM (Gli1 mRNA) |
| --- | --- | --- | --- | --- |
| 9.55 µM | O=C(CSc1nc2sc3c(c2c(=O)n1C1CC1)CCSC3)c1cccs1 [JEH-1-161-2] | 1 µM | – | – |
| 8.55 µM | O=C(CSc1nc2sc3c(c2c(=O)n1C1CC1)CCNC3)c1ccccc1 [KYK-1-57] | >50 µM | – | – |
| – | CC(C)(O)Cn1c(SCC(=O)c2cccs2)nc2sc3c(c2c1=O)CCCC3 [JEH-3-038-3] | – | 24.4% | 14.8% |
| – | C=C(C)Cn1c(SCC(=O)N2CCCC(C)C2)nc2sc3c(c2c1=O)CCCC3 (stereo not drawn) [JEH-3-120-1] | – | 28.7% | 106% |
| 19.1 µM | O=C(CSc1nc2sc3c(c2c(=O)n1C1CC1)CCOC3)c1cccs1 [JEH-1-161-1] | 0.5 µM | – | – |
| – | CC(C)n1c(SCC(=O)c2cccs2)nc2sc3c(c2c1=O)CCCC3 [JEH-3-031] | – | 11.7% | 101% |
| 3.32 µM | O=C(CSc1nc2ncccc2c(=O)n1C1CC1)c1cccs1 [JEH-1-137] | >50 µM | – | – |
| > 50 µM | C=C(C)Cn1c(SCC(=O)c2cccs2)nc2ccccc2c1=O [JEH-1-146-1] | 10 µM | – | 68.9% |
| 7.08 µM | O=C(CSc1nc2sc3c(c2c(=O)n1CC1CCC1)CCCC3)c1cccs1 [JEH-3-056-1] | 1 µM | 14.7% | 67.2% |
| 0.713 µM | O=C(CSc1nc2ccccc2c(=O)n1C1CC1)c1cccs1 [JEH-1-134] | 1 µM | – | – |
| 1.1 µM | C=C(C)Cn1c(SCC(=O)c2cccs2)nc2sccc2c1=O [JEH-1-054] | >50 µM | 19.6% | 50.4% |
| 1.11 µM | O=C(CSc1nc2ccsc2c(=O)n1C1CC1)c1cccs1 [JEH-2-069-2] | 48 µM | – | – |
| 3.79 µM | O=C(CSc1nc2sc3c(c2c(=O)n1C1CC1)CCCC3)c1ccncc1 [JEH-1-163-2] | >50 µM | – | – |
| 4.67 µM | CCCN1CCc2c(sc3nc(SCC(=O)c4ccccc4)n(C4CC4)c(=O)c23)C1 [KYK-1-100] | >50 µM | – | – |
| – | CC(C)Cn1c(SCC(=O)c2cccs2)nc2sc3c(c2c1=O)CCCC3 [JEH-3-038-2] | – | 27.8% | 102% |
| 14.1 µM | C=C(C)Cn1c(SCC(=O)c2cccs2)nc2cnccc2c1=O [JEH-2-088] | – | – | 24.2% |
| – | O=c1c2c3c(sc2[nH]c(=S)n1C1CC1)CNCC3 [KYK-1-99] | >50 µM | – | – |
| – | O=C(CSc1nc2sc3c(c2c(=O)n1-c1ccccn1)CCCC3)c1cccs1 [JEH-1-034] | 1 µM | – | – |
| – | C=C(C)Cn1c(SCC(=O)c2cccs2)nc2sc3c(c2c1=O)CCN(C(=O)c1ccco1)C3 [JEH-2-105] | – | – | 54.9% |
| – | C=C(C)Cn1c(SCC(=O)c2cc3ccccc3s2)nc2sc3c(c2c1=O)CCCC3 [KK-14-093-1] | >50 µM | – | – |
| 3.16 µM | O=C(CSc1nc2sccc2c(=O)n1CC1CC1)c1cccnc1 [JEH-2-022-2] | 25 µM | – | – |
| – | COc1ccc(-c2cc3c(=O)n(C4CC4)c(SCC(=O)c4ccccc4)nc3s2)cc1 [JEH-2-018] | >50 µM | – | – |
| – | O=c1c2ccsc2nc(SCc2ccccc2)n1C1CC1 [JEH-1-190-1] | 50 µM | – | – |
| 11.2 µM | C=C(C)Cn1c(SCC(=O)c2cccs2)nc2ncccc2c1=O [JEH-1-146-2] | >50 µM | – | 28.7% |

| EC50 [1] | SMILES | ZF Phenotype EC100 (zebrafish embryos) | inhibition at 1 µM (Gli1 mRNA) | inhibition at 10 µM (Gli1 mRNA) |
| --- | --- | --- | --- | --- |
| – | O=C(CSc1nc2sc3c(c2c(=O)n1Cc1ccccc1)CCCC3)c1cccs1 [JEH-3-058-2] | – | – | 18.3% |
| 1.09 µM | O=C(CSc1nc2sccc2c(=O)n1C1CC1)c1cccs1 [JEH-1-065-2] | 10 µM | – | – |
| – | O=C(CSc1nc2sc3c(c2c(=O)n1C1CC1)CCN(CCCc1ccccc1)C3)c1ccccc1 [KYK-1-88] | >50 µM | – | – |
| – | O=C(CSc1nc2sccc2c(=O)n1C1CC1)N1CCOCC1 [JEH-1-103] | >50 µM | – | – |
| 7.06 µM | C=C(C)Cn1c(SCC(=O)c2cccs2)nc2sc3c(c2c1=O)CCNC3 [JEH-1-064] | >50 µM | – | 64.1% |
| – | C=C(C)Cn1c(SCc2nc3cc(OC)ccc3o2)nc2sc3c(c2c1=O)CCCC3 [KK-14-096-2] | >50 µM | – | – |
| – | CC(C1CC1)n1c(SCC(=O)Nc2ccccc2O)nc2sccc2c1=O (stereo not drawn) [JEH-2-041-2] | 30 µM | – | – |
| 10.5 µM | C=C(C)Cn1c(SCC(=O)c2cccnc2)nc2sc3c(c2c1=O)CCCC3 [JEH-3-045-3] | – | – | 43.6% |
| 23.9 µM | C=C(C)Cn1c(SC)nc2sc3c(c2c1=O)CCCC3 [JEH-3-146] | – | 48.4% | 83.9% |
| – | Cn1cnc(S(=O)(=O)N2CCc3c(sc4nc(SCC(=O)c5ccccc5)n(C5CC5)c(=O)c34)C2)c1 [KYK-1-66] | >50 µM | – | – |
| – | O=C(CSc1nc2sc3c(c2c(=O)n1-c1ccc(Cl)cn1)CCCC3)c1cccs1 [JEH-1-050-2] | 25 µM | – | – |
| – | O=C(CSc1nc2sc3c(c2c(=O)n1C1CC1)CCN(C(=O)c1ccc(Cl)cc1)C3)c1ccccc1 [KYK-1-54] | >50 µM | – | – |
| – | O=C(CSc1nc2sc(-c3ccc(F)cc3)cc2c(=O)n1C1CC1)c1ccccc1 [JEH-2-034] | >50 µM | – | – |
| 5.13 µM | CN1CCc2c(sc3nc(SCC(=O)c4ccccc4)n(C4CC4)c(=O)c23)C1 [KYK-1-76] | >50 µM | – | – |
| – | C=C(C)Cn1c(SCC(=O)N2CCOCC2)nc2sccc2c1=O [JEH-1-104] | >50 µM | – | – |
| – | O=C(CSc1nc2sccc2c(=O)n1CC1CC1)c1cccs1 [JEH-1-065-1] | 5 µM | – | – |
| – | O=C(CSc1nc2sc3c(c2c(=O)n1C1CC1)CCN(S(=O)(=O)c1ccc(Cl)cc1)C3)c1ccccc1 [KYK-1-58] | >50 µM | – | – |
| – | CCCCN1CCc2c(sc3nc(SCC(=O)c4ccccc4)n(C4CC4)c(=O)c23)C1 [KYK-1-103-2] | >50 µM | – | – |
| – | COC(=O)c1c(NC(=S)SC)sc2c1CCNC2 [KYK-1-87] | >50 µM | – | – |
| – | CC(C)(C)Cn1c(SCC(=O)c2cccs2)nc2sc3c(c2c1=O)CCCC3 [JEH-3-056-2] | – | 13.1% | 84.8% |
| 30.2 µM | C=C(C)Cn1c(SCC(=O)c2cccs2)nc2sc3c(c2c1=O)CCOC3 [JEH-2-120-1] | – | – | 82.9% |
| 5.01 µM | Cc1ccc(CSc2nc3sccc3c(=O)n2C2CC2)cc1 [JEH-1-190-3] | >50 µM | – | – |
| – | O=C(CSc1nc2sc3c(c2c(=O)n1C1CC1)CCNC3)c1cccs1 [JEH-1-097] | >50 µM | – | – |
